Source: ChEMBL document CHEMBL5316327, “Design and Synthesis of Orally Active Quinolyl Pyrazinamides as Sigma 2 Receptor Ligands for the Treatment of Pancreatic Cancer” (J Med Chem, 2023)
Active and inactive are the calls of the source. The calls are words filed in the database; no cut-off is given here.

Key:
[1] = molecular target: Sigma non-opioid intracellular receptor 1 (Homo sapiens, UniProt Q99720); assay: Displacement of [3H](+)-pentazocine from human sigma 1 receptor transfected in human HEK293T cells assessed as inhibition constant by radioligand competition binding assay; assay type: cell-based
MIA PaCa-2 [2] = assay: cells; details: Homo sapiens, MIA PaCa-2, 72 h
[3] = molecular target: Sigma intracellular receptor 2 (Homo sapiens, UniProt Q5BJF2); assay: Displacement of [3H][…]ditolylguanidine from human sigma 2 receptor transfected in human HEK293T cells assessed as inhibition constant by radioligand competition binding assay; assay type: cell-based
[4] = Cytotoxicity against HEK293 cells measured after 72 hrs by MTT assay; assay type: toxicity, cell-based; details: human
[5] = Cytotoxicity against HPDE cells measured after 72 hrs by MTT assay; assay type: toxicity, cell-based; details: human
Panc02 = assay: cells; details: Mus musculus, Panc02, 72 h
PANC-1 = assay: cells; details: Homo sapiens, PANC-1, 72 h
MIA PaCa-2 [6] = assay: Antagonistic cytotoxicity against human MIA PaCa-2 cells at 0.001 to 0.1 uM measured after 7 days in presence of ammonium tetrathiomolybdate by crystal violet staining based analysis; assay type: functional, cell-based; details: dose 0.001-0.1 µM, time 7.0 day
cells = details: Mus musculus, KPC2, 72 h
BXPC-3 = assay: cells; details: Homo sapiens, BXPC-3, 72 h
MIA PaCa-2 [7] = assay: Inhibition of colony formation in human MIA PaCa-2 cells at 0.04 to 30 uM pretreated with ammonium tetrathiomolybdate for 4 hrs followed by compound addition and measured after 6 days; assay type: functional, cell-based; details: dose 0.04-30 µM, time 6.0 day
[8] = Cytotoxicity against HFF-1 cells measured after 72 hrs by MTT assay; assay type: toxicity, cell-based; details: human
MIA PaCa-2 [9] = assay: Synergistic cytotoxicity against human MIA PaCa-2 cells at 0.001 to 0.1 uM measured after 7 days in presence of copper chloride by crystal violet staining based analysis; assay type: functional, cell-based; details: dose 0.001-0.1 µM, time 7.0 day
HCT-116 = assay: Inhibition of colony formation in human HCT-116 cells at 0.04 to 30 uM pretreated with ammonium tetrathiomolybdate for 4 hrs followed by compound addition and measured after 6 days; assay type: functional, cell-based; details: dose 0.04-30 µM, time 6.0 day
[10] = Metabolic stability in mouse liver microsomes assessed as half life at 10 uM measured upto 60 mins in presence of NADPH by LC-MS/MS analysis; assay type: ADME, Microsome; details: 1 h
[11] = Metabolic stability in human liver microsomes assessed as half life at 10 uM measured upto 60 mins in presence of NADPH by LC-MS/MS analysis; assay type: ADME, Microsome; details: for t1/2: microsomes, 1 h, 10 µM
MIA PaCa-2 [12] = assay: Upregulation of GRP78 in human MIA PaCa-2 cells at 10 to 30 uM measured after 24 hrs by Western blot analysis; assay type: functional, cell-based; details: dose 10-30 µM

Chain of Sigma non-opioid intracellular receptor 1 (Q99720 whole entry): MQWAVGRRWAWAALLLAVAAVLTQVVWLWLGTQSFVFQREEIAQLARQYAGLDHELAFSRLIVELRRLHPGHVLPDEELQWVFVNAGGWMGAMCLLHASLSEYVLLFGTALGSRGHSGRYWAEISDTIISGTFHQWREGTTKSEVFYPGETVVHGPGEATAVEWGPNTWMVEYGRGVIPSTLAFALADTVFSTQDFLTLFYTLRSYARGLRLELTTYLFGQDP
Chain of Sigma intracellular receptor 2 (Q5BJF2 whole entry): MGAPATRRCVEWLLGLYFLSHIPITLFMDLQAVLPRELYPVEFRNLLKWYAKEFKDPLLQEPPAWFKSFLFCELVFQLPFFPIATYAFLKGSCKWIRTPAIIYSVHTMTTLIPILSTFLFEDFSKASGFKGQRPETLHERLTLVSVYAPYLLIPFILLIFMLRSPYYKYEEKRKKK

SMILES	Ki [1] [µM]	IC50 (MIA PaCa-2 [2]) [µM]	Ki [3] [µM]	further results
CCN(CCO)CCCC(C)Nc1cnc(C(=O)Nc2cc(C)cc3cccnc23)cn1 (stereo not given)	0.159	9.5	0.071	
CCN(CC)CCCC(C)Nc1cnc(C(=O)Nc2cc(Cl)cc3cccnc23)cn1 (stereo not given)	0.095	1.8	0.014	
Nc1ccn([C@@H]2O[C@H](CO)[C@@H](O)C2(F)F)c(=O)n1 [GEMCITABINE]				IC50 at 72 h [4]: 0.1 µM; IC50 at 72 h [5]: 0.001 µM
CCN(CC)CCCC(C)Nc1cnc(C(=O)Nc2ccc(OC)c3cccnc23)cn1 (stereo not given)	0.317	6.8	0.04	
CCN(CC)CCCC(C)Nc1cnc(CNc2cc(F)cc3cccnc23)cn1 (stereo not given)	1.46	> 30	0.065	
CCN(CC)CCCC(C)Nc1cnc(C(=O)Nc2ccc(C)c3cccnc23)cn1 (stereo not given)	0.398	1.7	0.042	
O=C(Nc1cccc2cccnc12)c1cnccn1				IC50 (Panc02): 0.3 µM; IC50 (PANC-1): 1.7 µM; Activity (MIA PaCa-2 [6]): Active; IC50 (cells): 0.2 µM; IC50 at 72 h [4]: 0.2 µM; IC50 at 72 h [5]: 0.6 µM; IC50 (BXPC-3): 1.8 µM; inhibition (MIA PaCa-2 [7]): inactive; IC50 at 72 h [8]: > 30 µM; Activity (MIA PaCa-2 [9]): Active; inhibition (HCT-116): inactive
CCN(CC)CCCC(C)Nc1cnc(C(=O)Nc2cccc3ccc(Cl)nc23)cn1 (stereo not given)	0.083	4.9	0.012	
CCN(CC)CCCC(C)Nc1cnc(C(=O)Nc2cccc3ccc(C)nc23)cn1 (stereo not given)	0.233	9.9	0.044	
CCN(CC)CCCC(C)NCC(=O)Nc1cc(C)cc2cccnc12 (stereo not given)	0.463	> 30	0.052	
O=C(Nc1cc(F)cc2cccnc12)c1cnc(NS(=O)(=O)CCC(F)(F)F)cn1		> 30		
CCN(CC)CCCC(C)Nc1cnc(C(=O)Nc2ccc(OC)c3ccc(OC)nc23)cn1 (stereo not given)	0.132	2.9	0.07	
CCN(CC)CCCC(C)Nc1cnc(C(=O)Nc2cc(C)cc3cccnc23)cn1 (stereo not given)	0.25	1.1	0.085	t1/2 [10]: 21 min
CCN(CC)CCCC(C)Nc1cnc(C(=O)Nc2cc(F)c(Cl)c3cccnc23)cn1 (stereo not given)	0.122	3.9	0.028	
CCN(CC)CCCC(C)Nc1cnc(C(=O)Nc2cc(C#N)cc3cccnc23)cn1 (stereo not given)	0.405	10.1	0.108	
CCN(CC)CCCC(C)Nc1cnc(C(=O)Nc2cc(OC)cc3cccnc23)cn1 (stereo not given)	0.137	2.3	0.013	
Cc1cc(NC(=O)c2cnc(S(=O)(=O)NCCN(C)C)cn2)c2ncccc2c1	0.508	0.6	2.15	t1/2 [10]: 6 min
CCN(CC)CCCC(C)Nc1cnc(C(=O)Nc2c(OC)ccc3cccnc23)cn1 (stereo not given)		> 30	1.63	
CCN(CC)CCCC(C)Nc1cnc(C(=O)Nc2c(C)ccc3cccnc23)cn1 (stereo not given)		> 30	2.66	
CN(C)CCCNc1cnc(C(=O)Nc2cc(F)cc3cccnc23)cn1	0.11	2.4	0.105	
COCCNc1cnc(C(=O)Nc2cc(F)cc3cccnc23)cn1		1.2		
Cc1cc(NC(=O)c2cnc(NCCN3CCNCC3)cn2)c2ncccc2c1	0.677	15.6	0.4	
Cc1cc(NC(=O)c2cnc(OC3CCNCC3)cn2)c2ncccc2c1	0.336	6.5	0.134	
CCN(CC)CCCC(C)Nc1cnc(C(=O)Nc2cc(C(F)(F)F)cc3cccnc23)cn1 (stereo not given)	0.385	4.9	0.155	

SMILES	Ki [1] [µM]	IC50 (MIA PaCa-2 [2]) [µM]	Ki [3] [µM]	further results
O=C(Nc1cc(F)cc2cccnc12)c1cnc(NCCN2CCCC2)cn1	0.208	2	0.165	
CCN(CC)CCCC(C)Nc1cnc(C(=O)Nc2cc(O)cc3cccnc23)cn1 (stereo not given)	1.27	7.9	0.458	
CCN(CC)CCCC(C)Nc1cnc(C(=O)Nc2cccc3c(Cl)ccnc23)cn1 (stereo not given)	0.059	3.4	0.02	
CCN(CC)CCCC(C)Nc1cnc(C(=O)Nc2cccc3cc(C)cnc23)cn1 (stereo not given)	0.169	2.3	0.016	
O=C(Nc1cc(F)cc2cccnc12)c1cnc(NCCN2CCS(=O)(=O)CC2)cn1	2.29	> 30	3.77	
CCN(CC)CCCC(C)Nc1cnc(C(=O)Nc2cccc3cccnc23)cn1 (stereo not given)	0.196	3.7	0.022	
O=C(CCNc1cnc(C(=O)Nc2cc(F)cc3cccnc23)cn1)NO		20		
CCN(CC)CCCC(C)Nc1nc(C(=O)Nc2cc(F)cc3cccnc23)cs1 (stereo not given)	0.159	1.5	0.032	t1/2 [11]: 23 min; t1/2 [10]: 3.3 min
CCN(CC)CCCC(C)Nc1cnc(C(=O)Nc2ccc(F)c3cccnc23)cn1 (stereo not given)	0.212	3	0.018	
CCN(CC)CCCC(C)Nc1cnc(C(=O)Nc2cc(Br)cc3cccnc23)cn1 (stereo not given)	0.046	1.6	0.027	
CCCNc1cnc(C(=O)Nc2cc(F)cc3cccnc23)cn1		2.6		
CCN(CC)CCCC(C)Nc1cnc(C(=O)Nc2cc(C3CC3)cc3cccnc23)cn1 (stereo not given)	0.071	3	0.027	
CCN(CC)CCCC(C)Nc1cnc(C(=O)Nc2cccc3cc(Cl)cnc23)cn1 (stereo not given)	0.155	3.8	0.051	
Fc1ccc(-n2cc(CCCCN3CCC4(CC3)OCc3ccccc34)c3ccccc32)cc1				Activity (MIA PaCa-2 [12]): Active
CN(C)CCNc1cnc(C(=O)Nc2cc(F)cc3cccnc23)cn1	0.627	1.4	0.471	
CCN(CC)CCCC(C)Nc1cnc(C(=O)Nc2ccc(Cl)c3ccc(OC)nc23)cn1 (stereo not given)	0.356	5.4	0.079	
O=C(CN1CCC(CN2Cc3ccccc3C2=O)CC1)c1ccc(F)cc1				Activity (MIA PaCa-2 [12]): Active
CCN(CC)CCCC(C)Nc1cnc(C(=O)Nc2cc(C)c(Cl)c3cccnc23)cn1 (stereo not given)	0.067	3.2	0.036	
CCN(CC)CCCC(C)Nc1ccc(S(=O)(=O)Nc2cc(F)cc3cccnc23)nc1 (stereo not given)	0.188	3.8	0.038	t1/2 [11]: 39.2 min; t1/2 [10]: 15 min
CC(C)CS(=O)(=O)Nc1cnc(C(=O)Nc2cc(F)cc3cccnc23)cn1		> 30		
CCN(CC)CCCC(C)Nc1cnc(C(=O)Nc2cccc3ccc(OC)nc23)cn1 (stereo not given)	0.067	1.9	0.013	half-life at 10 µM ([11]; liver microsomes): > 60 min; t1/2 [10]: 54 min
Cc1cc(NC(=O)c2cnc(N3CCN(CCN)CC3)cn2)c2ncccc2c1	0.166	7.4	0.129	
CN(C)CCOc1cnc(C(=O)Nc2cc(F)cc3cccnc23)cn1	0.112	0.6	1.34	
